Where a name gives a salt, the structure may show the parent alone. Read-outs that look alike come from different tables or passages of the source.
Legend:
EGFR wild type (EGFR WT) = EGFR wild type (EGFR WT) (Homo sapiens (Human), UniProt P00533); experiment: Cellular phosphorylation assay, EGF-stimulated EGFR phosphorylation in engineered NIH 3T3 cells, Phospho-EGFR DuoSet IC ELISA, Assay 5; format: cell-based
Experimental: NIH 3T3 cells were engineered to express EGFR wild type (EGFR WT; Assay 5, no footnote) with constructs obtained from GenScript and grown in DMEM supplemented with 10% fetal bovine serum and 15 μg/ml blasticidin. Cells were plated in 96-well plates at 20,000 cells/well and allowed to attach overnight at 37° C./5% CO2. Serially diluted compounds were added to the plates for 1 hour at 37° C./5% CO2. EGFR WT cells were stimulated with 100 ng/ml rEGF for an additional 10 minutes at 37° C./5% CO2. After compound incubation, medium was removed from the cells, which were then lysed in 100 μL/well lysis buffer according to the manufacturer's protocol (R&D Systems, DYC1095, Human Phospho-EGFR DuoSet IC ELISA). Same protocol was followed to determine the total levels of phospho-EGFR by measuring the optical density of each well using a VersaMax microplate reader. Curves were then generated and IC50 values calculated.

ErbB2 WT = ErbB2 WT (Homo sapiens (Human), UniProt P04626); experiment: ErbB enzyme assay (CisBio HTRF KinEASE-TK), Assay 2; format: biochemical
ErbB2 WT, sequence (P04626 23-1255): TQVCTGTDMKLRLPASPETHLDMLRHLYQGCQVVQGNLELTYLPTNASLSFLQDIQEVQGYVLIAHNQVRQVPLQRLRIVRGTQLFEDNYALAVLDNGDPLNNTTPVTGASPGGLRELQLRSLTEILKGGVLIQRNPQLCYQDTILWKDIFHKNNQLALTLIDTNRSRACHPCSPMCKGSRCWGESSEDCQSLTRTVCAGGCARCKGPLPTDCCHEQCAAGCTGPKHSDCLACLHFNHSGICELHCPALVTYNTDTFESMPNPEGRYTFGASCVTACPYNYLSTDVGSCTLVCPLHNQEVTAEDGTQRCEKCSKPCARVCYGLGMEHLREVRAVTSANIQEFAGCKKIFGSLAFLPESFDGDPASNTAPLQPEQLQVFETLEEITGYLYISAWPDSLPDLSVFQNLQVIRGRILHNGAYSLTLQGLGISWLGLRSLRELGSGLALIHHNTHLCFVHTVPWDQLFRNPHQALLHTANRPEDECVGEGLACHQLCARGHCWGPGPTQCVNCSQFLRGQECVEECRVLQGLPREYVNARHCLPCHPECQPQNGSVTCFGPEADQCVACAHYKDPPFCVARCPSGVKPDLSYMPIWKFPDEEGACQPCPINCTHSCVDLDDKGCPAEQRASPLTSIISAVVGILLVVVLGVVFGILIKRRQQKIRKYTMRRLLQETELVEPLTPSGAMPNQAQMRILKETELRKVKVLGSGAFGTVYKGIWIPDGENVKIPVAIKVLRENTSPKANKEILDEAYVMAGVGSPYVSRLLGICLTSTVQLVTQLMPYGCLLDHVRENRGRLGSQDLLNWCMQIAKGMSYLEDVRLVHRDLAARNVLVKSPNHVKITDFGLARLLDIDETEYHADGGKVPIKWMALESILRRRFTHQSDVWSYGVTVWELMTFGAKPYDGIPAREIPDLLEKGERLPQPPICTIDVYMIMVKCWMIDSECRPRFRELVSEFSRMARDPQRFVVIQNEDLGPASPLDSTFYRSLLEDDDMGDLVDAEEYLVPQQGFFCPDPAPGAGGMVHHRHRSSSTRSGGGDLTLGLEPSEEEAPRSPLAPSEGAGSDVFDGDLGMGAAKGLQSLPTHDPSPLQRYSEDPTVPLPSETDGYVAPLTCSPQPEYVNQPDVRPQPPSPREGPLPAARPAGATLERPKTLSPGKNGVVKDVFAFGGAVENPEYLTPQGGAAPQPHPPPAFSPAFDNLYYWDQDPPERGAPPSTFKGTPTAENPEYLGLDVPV
Procedure, shortened: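 ErbB2 phosphorylates 250 nM biotin-TK substrate at 1 mM ATP in 25 mM HEPES pH 7.4, 10 mM MgCl2, 0.01% Triton X-100 and 2% DMSO, for 30 min at 22 °C. Product is detected by HTRF with Sa-XL665 and TK-Ab-Cryptate. Percent of control is set by DMSO-only wells and pre-quenched wells.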

EGFR = EGFR (Homo sapiens (Human), UniProt P00533); experiment: ErbB enzyme assay (CisBio HTRF KinEASE-TK), Assay 3; format: biochemical
EGFR, sequence (P00533 25-1210): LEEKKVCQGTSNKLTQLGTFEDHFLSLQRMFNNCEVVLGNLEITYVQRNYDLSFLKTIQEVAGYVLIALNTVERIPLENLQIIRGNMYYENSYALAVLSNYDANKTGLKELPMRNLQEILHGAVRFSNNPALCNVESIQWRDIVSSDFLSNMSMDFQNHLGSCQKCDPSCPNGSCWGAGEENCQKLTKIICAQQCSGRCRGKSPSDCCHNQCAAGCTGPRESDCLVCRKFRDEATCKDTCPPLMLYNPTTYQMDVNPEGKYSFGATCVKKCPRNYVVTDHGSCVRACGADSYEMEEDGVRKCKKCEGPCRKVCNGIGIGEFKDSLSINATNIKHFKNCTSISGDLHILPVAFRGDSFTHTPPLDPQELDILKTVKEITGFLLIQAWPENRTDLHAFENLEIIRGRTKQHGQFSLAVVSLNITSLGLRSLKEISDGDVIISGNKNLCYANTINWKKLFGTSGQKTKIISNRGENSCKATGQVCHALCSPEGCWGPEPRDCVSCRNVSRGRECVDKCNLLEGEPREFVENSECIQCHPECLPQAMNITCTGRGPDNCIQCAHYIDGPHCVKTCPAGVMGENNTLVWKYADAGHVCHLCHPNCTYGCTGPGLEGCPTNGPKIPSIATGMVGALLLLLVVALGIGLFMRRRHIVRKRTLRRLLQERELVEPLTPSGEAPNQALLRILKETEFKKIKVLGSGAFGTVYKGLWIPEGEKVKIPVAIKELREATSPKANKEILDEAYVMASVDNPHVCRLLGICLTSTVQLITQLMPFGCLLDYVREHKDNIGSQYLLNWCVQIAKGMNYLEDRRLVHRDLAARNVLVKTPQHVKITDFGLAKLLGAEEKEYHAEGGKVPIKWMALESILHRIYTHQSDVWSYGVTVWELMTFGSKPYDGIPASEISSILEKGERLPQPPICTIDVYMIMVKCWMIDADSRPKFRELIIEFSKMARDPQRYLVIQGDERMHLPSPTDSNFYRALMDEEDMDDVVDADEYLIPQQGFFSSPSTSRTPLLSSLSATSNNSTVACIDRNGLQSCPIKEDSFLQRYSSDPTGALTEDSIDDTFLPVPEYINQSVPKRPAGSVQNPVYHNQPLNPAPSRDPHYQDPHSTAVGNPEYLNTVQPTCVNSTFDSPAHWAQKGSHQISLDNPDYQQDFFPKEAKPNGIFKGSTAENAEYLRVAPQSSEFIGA
Procedure, shortened: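 HTRF KinEASE-TK assay: kinase with 250 nM biotinylated TK-substrate and 1 mM ATP in 25 mM HEPES pH 7.4, 10 mM MgCl2, 0.01% Triton X-100, 2% DMSO, 30 min at 22 °C. Quenched with Sa-XL665/TK-Ab-Cryptate, read after 1 h. IC50 from 4-parameter fit of percent of control.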

[1] = target: ErbB2 with Exon 20 YVMA insertion (HER2-YVMA) (Homo sapiens (Human), UniProt P04626, INS775YVMA); experiment: Cellular phosphorylation assay, constitutive ErbB2 phosphorylation (Y1196) in engineered NIH 3T3 cells, Assay 4; format: cell-based
ErbB2 with Exon 20 YVMA insertion (HER2-YVMA), sequence (P04626 other isoform, or with tags, fused parts or gaps ins YVMA behind 775): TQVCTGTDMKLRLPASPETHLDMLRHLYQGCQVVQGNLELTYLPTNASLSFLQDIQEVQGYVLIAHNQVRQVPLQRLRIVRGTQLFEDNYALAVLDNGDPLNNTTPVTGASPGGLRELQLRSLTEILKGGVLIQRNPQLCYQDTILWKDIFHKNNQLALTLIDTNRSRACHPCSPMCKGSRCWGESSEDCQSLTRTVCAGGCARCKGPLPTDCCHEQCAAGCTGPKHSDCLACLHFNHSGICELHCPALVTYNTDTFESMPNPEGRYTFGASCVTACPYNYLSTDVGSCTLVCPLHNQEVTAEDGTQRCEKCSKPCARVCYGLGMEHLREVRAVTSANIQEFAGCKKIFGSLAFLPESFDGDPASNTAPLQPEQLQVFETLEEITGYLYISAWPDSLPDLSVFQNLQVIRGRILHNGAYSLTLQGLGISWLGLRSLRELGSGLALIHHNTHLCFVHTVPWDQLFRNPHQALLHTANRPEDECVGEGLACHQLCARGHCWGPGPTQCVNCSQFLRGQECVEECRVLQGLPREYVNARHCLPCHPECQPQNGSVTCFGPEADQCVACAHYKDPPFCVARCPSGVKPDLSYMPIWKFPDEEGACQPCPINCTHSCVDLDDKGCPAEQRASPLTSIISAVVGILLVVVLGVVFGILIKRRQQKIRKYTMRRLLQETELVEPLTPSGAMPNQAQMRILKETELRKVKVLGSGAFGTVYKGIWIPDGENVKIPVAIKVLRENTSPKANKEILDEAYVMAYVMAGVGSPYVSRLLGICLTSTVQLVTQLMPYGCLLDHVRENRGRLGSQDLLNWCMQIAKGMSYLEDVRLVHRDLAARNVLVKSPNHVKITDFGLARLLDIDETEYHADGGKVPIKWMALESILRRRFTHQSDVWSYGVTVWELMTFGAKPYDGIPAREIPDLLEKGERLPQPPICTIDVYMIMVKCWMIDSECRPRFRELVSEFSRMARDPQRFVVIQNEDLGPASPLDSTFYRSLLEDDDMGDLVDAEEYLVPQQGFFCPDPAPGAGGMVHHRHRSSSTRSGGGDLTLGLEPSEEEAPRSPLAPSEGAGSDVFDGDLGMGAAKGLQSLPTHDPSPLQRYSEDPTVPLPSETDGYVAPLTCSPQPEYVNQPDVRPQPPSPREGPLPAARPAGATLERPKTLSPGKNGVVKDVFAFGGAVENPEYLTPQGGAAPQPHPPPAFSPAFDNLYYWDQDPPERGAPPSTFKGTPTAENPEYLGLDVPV
Procedure, shortened: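 Engineered NIH 3T3 cells expressing HER2-YVMA treated with compounds 1 h at 37 °C, then formaldehyde-fixed and methanol-permeabilized. pErbB2 Y1196 detected by in-cell infrared immunofluorescence, normalized to GAPDH. IC50 from the normalized curves.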

[2] = target: ErbB2 insYVMA (HER2-YVMA, SEQ ID NO: 2) (Homo sapiens, UniProt P04626, INS775YVMA/P1170A); experiment: biochemical; conditions: ErbB2 insYVMA enzyme assay

EGFR wild type (EGFR WT), sequence (P00533 25-1210): as the sequence (P00533 25-1210) above

Cc1cc(Nc2ncnc3cnc(N(C)[C@H]4C[C@H](O)C4)nc23)ccc1Oc1ccn2ncnc2c1 [Example 366]
IC50 (EGFR wild type (EGFR WT)): ≥ 5 µM | IC50 (ErbB2 WT): 0.0067 µM | IC50 (EGFR): 0.303 µM | IC50 [1]: 0.0766 µM | IC50 ([2]; read-out: Assay 1 IC50): 8.3 nM

Cn1cnc2cc(Oc3ccc(Nc4ncnc5cnc(N6CC[C@@H]7COC[C@H]76)nc45)cc3Cl)ccc21 [Example 489]
IC50 (EGFR wild type (EGFR WT)): ≥ 5 µM | IC50 (ErbB2 WT): 0.0097 µM | IC50 (EGFR): 3.37 µM | IC50 [1]: 0.0164 µM | IC50 ([2]; read-out: Assay 1 IC50): 17.7 nM

Cc1c(Oc2ccn3ncnc3c2)ccc(Nc2ncnc3cnc(N[C@H]4CNC[C@H]4F)nc23)c1F [Example 318]
IC50 (EGFR wild type (EGFR WT)): ≥ 5 µM | IC50 (ErbB2 WT): 0.088 µM | IC50 (EGFR): 4.33 µM | IC50 [1]: 0.928 µM | IC50 ([2]; read-out: Assay 1 IC50): 125 nM

COC1CCN(c2ncc3ncnc(Nc4ccc(Oc5ccn6ncnc6c5)c(C)c4)c3n2)CC1 [Example 411]
IC50 (EGFR wild type (EGFR WT)): ≥ 5 µM | IC50 (ErbB2 WT): 0.0562 µM | IC50 (EGFR): ≥ 10 µM | IC50 [1]: 0.604 µM | IC50 ([2]; read-out: Assay 1 IC50): 26.3 nM

Cc1cc(Nc2ncnc3cnc(N4CCN(C)[C@H](C)C4)nc23)ccc1Oc1ccn2ncnc2c1 [Example 136, (R)—N-(4-([1,2,4]triazolo[1,5-a]pyridin-7-yloxy)-3-methylphenyl)-6-(3,4-dimethylpiperazin-1-yl)pyrimido[5,4-d]pyrimidin-4-amine]
IC50 (EGFR wild type (EGFR WT)): ≥ 5 µM | IC50 (ErbB2 WT): 0.0593 µM | IC50 (EGFR): ≥ 10 µM | IC50 [1]: 0.315 µM | IC50 ([2]; read-out: Assay 1 IC50): 55.3 nM

Cc1cc(Nc2ncnc3cnc(N4C[C@H]5C[C@@H]4CO5)nc23)c(F)cc1Oc1ccc2c(c1)ncn2C [Example 481]
IC50 (EGFR wild type (EGFR WT)): ≥ 5 µM | IC50 (ErbB2 WT): 0.0412 µM | IC50 (EGFR): ≥ 10 µM | IC50 [1]: 0.0742 µM | IC50 ([2]; read-out: Assay 1 IC50): 29.4 nM

Cc1cc(Nc2ncnc3cnc(N4CCC45COC5)nc23)ccc1Oc1ccc2c(c1)ncn2C [Example 27, N-(3-methyl-4-((1-methyl-1H-benzo[d]imidazol-5-yl)oxy)phenyl)-6-(6-oxa-1-azaspiro[3.3]heptan-1-yl)pyrimido[5,4-d]pyrimidin-4-amine]
IC50 (EGFR wild type (EGFR WT)): ≥ 5 µM | IC50 (ErbB2 WT): 0.0508 µM | IC50 (EGFR): ≥ 10 µM | IC50 [1]: 0.0093 µM | IC50 ([2]; read-out: Assay 1 IC50): 20 nM

Cc1c(Oc2ccc3c(c2)ncn3C)ccc(Nc2ncnc3cnc(N(C)CC(C)(C)O)nc23)c1F [Example 438]
IC50 (EGFR wild type (EGFR WT)): ≥ 5 µM | IC50 (ErbB2 WT): 0.047 µM | IC50 (EGFR): ≥ 10 µM | IC50 [1]: 0.134 µM | IC50 ([2]; read-out: Assay 1 IC50): 27.4 nM

Cc1cc(Nc2ncnc3cnc(N4CC(O)(C(F)F)C4)nc23)ccc1Oc1ccc2c(c1)ncn2C [Example 160, 3-(difluoromethyl)-1-(8-((3-methyl-4-((1-methyl-1H-benzo[d]imidazol-5-yl)oxy)phenyl)amino)pyrimido[5,4-d]pyrimidin-2-yl)azetidin-3-ol hydrochloride]
IC50 (EGFR wild type (EGFR WT)): ≥ 5 µM | IC50 (ErbB2 WT): 0.0672 µM | IC50 (EGFR): 6.76 µM | IC50 [1]: 0.0428 µM | IC50 ([2]; Assay 1 IC50 (nM)): 20.3 nM

Cc1cc(Nc2ncnc3cnc(N(C)CC(C)(C)C#N)nc23)ccc1Oc1ccc2c(c1)ncn2C [Example 205, 2,2-dimethyl-3-(methyl(8-((3-methyl-4-((1-methyl-1H-benzo[d]imidazol-5-yl)oxy)phenyl)amino)pyrimido[5,4-d]pyrimidin-2-yl)amino)propanenitrile]
IC50 (EGFR wild type (EGFR WT)): ≥ 5 µM | IC50 (ErbB2 WT): 0.104 µM | IC50 (EGFR): ≥ 10 µM | IC50 [1]: 0.0256 µM | IC50 ([2]; read-out: Assay 1 IC50): 29.7 nM

Clc1cc(Nc2ncnc3cnc(N4CCN5CCOC[C@H]5C4)nc23)ccc1Oc1ccn2ncnc2c1 [Example 430]
IC50 (EGFR wild type (EGFR WT)): ≥ 5 µM | IC50 (ErbB2 WT): 0.0255 µM | IC50 (EGFR): 4.03 µM | IC50 [1]: 0.0319 µM | IC50 ([2]; read-out: Assay 1 IC50): 8.6 nM

Cc1cc(Nc2ncnc3cnc(N(C)CC(O)C(F)(F)F)nc23)ccc1Oc1ccc2c(c1)ncn2C (stereo not drawn) [Example 188, 1,1,1-trifluoro-3-(methyl(8-((3-methyl-4-((1-methyl-1H-benzo[d]imidazol-5-yl)oxy)phenyl)amino)pyrimido[5,4-d]pyrimidin-2-yl)amino)propan-2-ol]
IC50 (EGFR wild type (EGFR WT)): ≥ 5 µM | IC50 (ErbB2 WT): 0.0271 µM | IC50 (EGFR): ≥ 10 µM | IC50 [1]: 0.0205 µM | IC50 ([2]; read-out: Assay 1 IC50): 27.5 nM

FC(F)(F)[C@H]1CN(c2ncc3ncnc(Nc4ccc(Oc5ccn6ncnc6c5)c(Cl)c4)c3n2)CCN1 [Example 429]
IC50 (EGFR wild type (EGFR WT)): ≥ 5 µM | IC50 (ErbB2 WT): 0.0396 µM | IC50 (EGFR): 3.95 µM | IC50 [1]: 0.0466 µM | IC50 ([2]; read-out: Assay 1 IC50): 11.2 nM

Cc1cc(Nc2ncnc3cnc(N4CCC[C@@](C)(O)C4)nc23)ccc1Oc1ccn2ncnc2c1 [Example 414]
IC50 (EGFR wild type (EGFR WT)): ≥ 5 µM | IC50 (ErbB2 WT): 0.0237 µM | IC50 (EGFR): 1.41 µM | IC50 [1]: 0.14 µM | IC50 ([2]; read-out: Assay 1 IC50): 25.2 nM

CC1(C)CN(c2ncc3ncnc(Nc4ccc(Oc5ccn6ncnc6c5)c(Cl)c4)c3n2)CCO1 [Example 330]
IC50 (EGFR wild type (EGFR WT)): ≥ 5 µM | IC50 (ErbB2 WT): 0.0726 µM | IC50 (EGFR): 8.51 µM | IC50 [1]: 0.197 µM | IC50 ([2]; read-out: Assay 1 IC50): 34.3 nM

— patent publication US11834453B2, “Substituted pyrimido[5,4-d]pyrimidines as HER2 inhibitors” (Array BioPharma Inc., priority 2020, dated 2023)
